This note sets out measurements from US11685741B2, “Fluorescent probes” (University of Massachusetts, priority 2017, dated 2023).

Data set [1] is described as follows: Binding studies of sensor with Fe2+ (stoichiometry, affinity, reversibility). Particulars: for binding constant: 1:1 sensor-Fe^2+ complex, H2O/THF pH 7.3 v/v 1:1. As to the method:
The binding stoichiometry between the sensor Rh6GD and Fe^2+ was investigated by absorption and fluorescence titrations first. The sensor, Rh6GD has an absorption band at ˜420 nm (FIG. 26) which is due to the transition from S0 to S1 states (A. Chakraborty, et al., N. Chem. Phys., 2006, 324, 733) of the dimethylaminocinnamaldehyde moiety. […] Similar titrations were performed and were monitored by fluorescence spectroscopy.
The binding constant was estimated by using the absorption titration results. The equations below were used to calculate the binding constant for 2:1 complexes following a reported procedure (M. Guo, et al., Dalton Trans., 2007, 102, 4951). S+2L ? SL2 (1) The complex apparent binding constant is given by
[formula] Fc is the fraction of L that formed a complex; the subscripts e and o stand for equilibrium and initial concentrations, respectively. Au, Am, and Ac are the absorbances of solutions of L (before any Fe^2+ was added), during the titration, and at saturation, respectively. The concentration of free Fe^2+ at equilibrium, [S]e, is found with the following identity: [S]e=[S]o−[SL2]e[=S]o−Fc[L]o (4) Finally, the integrated apparent binding constant equation is shown in equation (5).
Reversibility experiments were carried out by adding the metal chelator EDTA to the Rh6GD-Fe^2+ complex in H2O/THF (pH 7.3, v/v 4:1). […]
Besides metal-selectivity, the binding constant, which describes the strength of binding between the sensor and metal cations, is also an important factor to be considered in bio-imaging. […] Job's method was applied to study the binding stoichiometry between Rh101D and Fe^2+ and monitored by the absorbance at 585 nm.
The binding constants were estimated by using the fluorescence titration results (FIG. 38). […]
The binding stoichiometry and the affinity between the sensor NIRh-Fret and Fe^2+ were investigated by UV-vis absorption titration. […] The binding constant for the formation of this complex was determined to be 2.9×10^6 M^−1 using a reported procedure (C. A. Perez, et al., J. Inorg. Biochem., 2009, 103, 326). […]

Data set [2] in a line: Effect of pH on fluorescence of sensor and its Fe complex. The format is physicochemical. Particulars: pH adjusted with HCl/NaOH.
A short description of data set [3]: Solubility of sensor noted in NMR studies. The format is physicochemical. Particulars: NMR sample solution. The source says: The binding site of Fe^2+ on Rh101D was investigated by 2D NMR. […] COSY NMR spectra are of sufficient resolution for the assignment of the peaks in the aromatic region (FIG. 44). After adding Fe^2+ to Rh101D, all the ^1H NMR signals were broadened.
In order to probe the binding site of Fe^2+ on the NIRh-Fret sensor, 1D and 2D ^1H NMR of the sensor NIRh-Fret was investigated first. […] The assignment of the ^1H NMR peaks was based on 2D ^1H-^1H COSY spectra.

Molecules are shown by their SMILES.

In data set [1], `CCN(CC)c1ccc2c(c1)OC1=C(CCC/C1=C\C=C1\N(C)c3ccccc3C1(C)C)C21c2ccccc2C(=O)N1/N=C\C=C\c1ccc(N(C)C)cc1` (stereo not shown) [NIRh-Fret, (E)-6′-(diethylamino)-2-(((1Z,2E)-3-(4-(dimethylamino)phenyl)allylidene)amino)-4′-(2-((E)-1,3,3-trimethylindolin-2-ylidene)ethylidene)-1′,2′,3′,4′-tetrahydrospiro[isoindoline-1,9′-xanthen]-3-one] yielded a binding constant of 2.9e+06 M⁻¹. For the same compound, in data set [2], the “pH range over which sensor (and Fe complex) fluorescence is stable / working pH range” value is given as not below 4.5. For the same compound, in data set [3], the solubility result is listed as “limited solubility”.
`CCNc1cc2c(cc1C)C1(c3cc(C)c(NCC)cc3O2)c2ccccc2C(=O)N1/N=C/C=C/c1ccc(N(C)C)cc1` [Rh6GD, 2-(((1E,2E)-3-(4-(dimethylamino)phenyl)allylidene)amino)-3′,6′-bis(ethylamino)-2′,7′-dimethylspiro[isoindoline-1,9′-xanthen]-3-one]: in data set [1] (2:1 sensor-Fe^2+ complex, absorption titration, H2O/THF pH 7.3 v/v 4:1), the apparent binding constant is given as 1.8×10^11 M^−2. Moreover, the “pH range over which sensor (and Fe complex) fluorescence is stable / working pH range” value in data set [2] is on record as 9.3 to 4.5.
As for `CN(C)c1ccc(/C=C/C=N/N2C(=O)c3ccccc3C23c2cc4c5c(c2Oc2c3cc3c6c2CCCN6CCC3)CCCN5CCC4)cc1` [Rh101D], the binding constant in data set [1] turned out to be 120000 M⁻¹. For the same compound, the “pH range over which sensor (and Fe complex) fluorescence is stable / working pH range” value in data set [2] fell in the range of 9.5 to 4.5. For the same compound, the solubility result in data set [3] is “limited solubility”.
For the compound `CCN(CC)c1ccc2c(c1)Oc1cc(N(CC)CC)ccc1C21c2ccccc2C(=O)N1CC/N=C(\C)c1cccc(C(C)=O)n1` [Rh-PK, (E)-2-(2-((1-(6-acetylpyridin-2-yl)ethylidene)amino)ethyl)-3′,6′-bis(diethylamino)spiro[isoindoline-1,9′-xanthen]-3-one], the “pH range over which sensor (and Fe complex) fluorescence is stable / working pH range” value in data set [2] is reported as 4 to 9; in data set [2] (listed as Rh-Pk) it was 4-9.
